# “And” between values parts separate entries of the source, which are not always exact repeats. Equal values may be shown once. Inconclusive results and toxic doses are left out.
# Test system: BDF1 mice, B16 melanoma ip, median survival T/C
# Test: NCI In Vivo Anticancer Drug Screen. Data for tumor model B16 Melanoma (intraperitoneal) in B6D2F1 (BDF1) mice
# Details: endpoint: median survival time, higher = longer survival
# How it was run: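 Transplantable tumor model; survival or tumor size measured; reported as T/C, treated over vehicle control.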
# [1] = dose: 50.0 mg/kg/injection, schedule: Q01DX009 (ip), vehicle: Klucel (hydroxypropylcellulose) (HPC)
# [2] = dose: 100.0 mg/kg/injection, schedule: Q01DX009 (ip), vehicle: Klucel (hydroxypropylcellulose) (HPC)
# [3] = dose: 200.0 mg/kg/injection, schedule: Q01DX009 (ip), vehicle: Klucel (hydroxypropylcellulose) (HPC)
# [4] = dose: 6.25 mg/kg/injection, schedule: Q01DX009 (ip), vehicle: saline
# [5] = dose: 12.5 mg/kg/injection, schedule: Q01DX009 (ip), vehicle: saline
# [6] = dose: 25.0 mg/kg/injection, schedule: Q01DX009 (ip), vehicle: saline
# [7] = dose: 50.0 mg/kg/injection, schedule: Q01DX009 (ip), vehicle: saline
# [8] = dose: 100.0 mg/kg/injection, schedule: Q01DX009 (ip), vehicle: saline
# [9] = dose: 100.0 mg/kg/injection, schedule: Q04DX003 (ip), vehicle: saline with Tween-80
# [10] = dose: 200.0 mg/kg/injection, schedule: Q04DX003 (ip), vehicle: saline with Tween-80
# [11] = dose: 400.0 mg/kg/injection, schedule: Q04DX003 (ip), vehicle: saline with Tween-80
structure (smiles),measurement,setting,value
O=C(O)CNc1ccccc1C(=O)O,T/C,[1],108 % of control
same,T/C,[2],94 % of control
same,T/C,[3],91 % of control
CCNC(Cc1ccccc1)C1CCCO1 (stereo not given),T/C,[4],122 % of control
same,T/C,[5],120 % of control
same,T/C,[6],115 % of control
same,T/C,[7],115 % of control
same,T/C,[8],100 % of control
COc1ccc2c(Cc3ccccc3)cncc2c1O,T/C,"dose: 6.25 mg/kg/injection, schedule: Q01DX009 (ip), vehicle: Klucel (hydroxypropylcellulose) (HPC)",97 % of control
same,T/C,"dose: 12.5 mg/kg/injection, schedule: Q01DX009 (ip), vehicle: Klucel (hydroxypropylcellulose) (HPC)",99 % of control
same,T/C,"dose: 25.0 mg/kg/injection, schedule: Q01DX009 (ip), vehicle: Klucel (hydroxypropylcellulose) (HPC)",102 % of control
same,T/C,[1],104 % of control
CCOC(=O)CCCN(c1sc(C)c(C)c1C(=O)OCC)S(=O)(=O)c1ccc(C)cc1,T/C,"dose: 50.0 mg/kg/injection, schedule: Q04DX003 (ip), vehicle: saline with Tween-80",111 % of control
same,T/C,[9],105 % of control
same,T/C,[10],111 % of control
same,T/C,[11],100 % of control
O=C(O)C1=CCC=CC1,T/C,[9],100 % of control
same,T/C,[10],103 % of control
same,T/C,[11],96 % of control
COc1c2c(cc3c1OCO3)CCN(C)C2,T/C,"dose: 10.0 mg/kg/injection, schedule: Q01DX009 (ip), vehicle: saline",95 % of control
same,T/C,"dose: 20.0 mg/kg/injection, schedule: Q01DX009 (ip), vehicle: saline",99 % of control
same,T/C,"dose: 40.0 mg/kg/injection, schedule: Q01DX009 (ip), vehicle: saline",100 % of control
same,T/C,"dose: 80.0 mg/kg/injection, schedule: Q01DX009 (ip), vehicle: saline",91 % of control
COC(COC(N)=O)C1=C(N2CC2)C(=O)C(C)=C(N2CC2)C1=O (stereo not given),T/C,"dose: 0.03 mg/kg/injection, schedule: Q01DX009 (ip), vehicle: saline",93 % of control and 107 % of control and 122 % of control
same,T/C,"dose: 0.06 mg/kg/injection, schedule: Q01DX009 (ip), vehicle: saline",101 % of control and 114 % of control
same,T/C,"dose: 0.12 mg/kg/injection, schedule: Q01DX009 (ip), vehicle: saline",123 % of control
same,T/C,"dose: 0.25 mg/kg/injection, schedule: Q01DX009 (ip), vehicle: saline",163 % of control
same,T/C,"dose: 0.5 mg/kg/injection, schedule: Q01DX009 (ip), vehicle: saline",179 % of control and 196 % of control
C#CC(O)(/C=C\Cl)CC (stereo not given),T/C,[4],110 % of control
same,T/C,[5],102 % of control
same,T/C,[6],100 % of control
same,T/C,[7],110 % of control
same,T/C,[8],115 % of control
CCC(=O)NC(CC(C)C)C(=O)NC(CC(C)C)C(=O)NC(C=O)CCCN=C(N)N (stereo not given) (tested in a mixture with another compound),T/C,[5],100 % of control and 105 % of control
same,T/C,[6],94 % of control and 105 % of control
same,T/C,[7],99 % of control and 105 % of control
same,T/C,[8],108 % of control and 120 % of control
O=C1C(Cl)=C(Nc2ccc(C(=O)Nc3ccc4cc(S(=O)(=O)O)cc(S(=O)(=O)O)c4c3)cc2)C(=O)C(Cl)=C1Nc1ccc(C(=O)Nc2ccc3cc(S(=O)(=O)O)cc(S(=O)(=O)O)c3c2)cc1,T/C,[7],109 % of control
same,T/C,[8],102 % of control
same,T/C,"dose: 200.0 mg/kg/injection, schedule: Q01DX009 (ip), vehicle: saline",100 % of control
Brc1ccc(C=C2c3ccccc3-c3ccccc32)cc1,T/C,"dose: 100.0 mg/kg/injection, schedule: Q04DX003 (ip), vehicle: Klucel (hydroxypropylcellulose) (HPC)",97 % of control
same,T/C,"dose: 200.0 mg/kg/injection, schedule: Q04DX003 (ip), vehicle: Klucel (hydroxypropylcellulose) (HPC)",105 % of control
same,T/C,"dose: 400.0 mg/kg/injection, schedule: Q04DX003 (ip), vehicle: Klucel (hydroxypropylcellulose) (HPC)",102 % of control
O=c1oc(-c2ccccc2I)nc2ccccc12,T/C,[2],99 % of control
same,T/C,[3],94 % of control
CCCCCCCCCCCCCCCC(=O)N(C(C)CCCN(CC)CC)C(C)CCCN(CC)CC (stereo not given),T/C,"dose: 3.13 mg/kg/injection, schedule: Q01DX009 (ip), vehicle: other",91 % of control
same,T/C,"dose: 12.5 mg/kg/injection, schedule: Q01DX009 (ip), vehicle: other",92 % of control
CCCN1CSC(=S)N(CCC)C1,T/C,[1],89 % of control
same,T/C,[2],102 % of control
same,T/C,[3],102 % of control
